Test results: patent publication US12544355B2, “Use of monascinol in preparation of fat-reducing product” (TIANJIN UNIVERSITY OF SCIENCE AND TECHNOLOGY, priority 2019, dated 2026)
Marks after values point to notes of the source that are not given here. Blank lines part the entries; values can stand above or below the compound they belong to.

Columns and labels:
[1] = test system: HepG2 cells modeled with oleic acid; assay: Cytotoxicity (MTT) on HepG2 cells modeled with oleic acid; format: cell-based; details: 24 h, 0.3 mmol/L oleic acid
Experimental: (§1) HepG2 cells in good growth condition were inoculated in a 6-well plate at 2*10^5 cells/mL, 1 mL per well. When cell adhesion rate reached 80%-90%, the medium was discarded. A blank group and a model group were set, where a complete medium was added to the blank group, 0.3 mmol/L oleic acid induction solution diluted with a complete medium was added to the model group, at 2 mL per well; after 24 hours of culture, the accumulation of lipid drops in the cells was observed by oil red 0 staining.
• a. HepG2 cells in good growth condition were inoculated in a 96-well plate at 5*10^4 cells/mL, 100 μL per well. When the cell adhesion rate reached 80%-90%, the medium was discarded. • b. MS and MC were each dissolved in dimethyl sulfoxide (DMSO) to prepare a 5 mg/mL of mother liquid, and the mother liquid was stored at −20° C. The 5 mg/mL of mother liquid was diluted with a complete medium containing 0.3 mmol/L of oleic acid to obtain MS sample concentrations or MC sample concentrations (2, 4, 6, 8, 10, 12 μg/mL) required for the experiment, ensuring that a final concentration of DMSO in each sample is 0.5%. • c. […]
After 24 h, the survival rate of HepG2 cells in each group was detected based on a MTT experiment method. • d. results are shown in FIG. 2.

[2] = test system: HepG2 cells modeled with oleic acid; assay: Triglyceride content in HepG2 cells modeled with oleic acid (triglyceride kit); format: cell-based; details: 24 h, 0.3 mmol/L oleic acid; for reduce the TG content in cells by: Example 3, 2 μg/mL
Experimental: • a. HepG2 cells in good growth condition were inoculated in a 6-well plate at 2*10^5 cells/mL, 1 mL per well, cultured for 12 h, and after the cells adhered to the wall, the medium was discarded. • b. after the medium was discarded, a blank group, a modeling group and a dosing group were set. • Blank control group: added with 2 mL of a complete medium per well; • Oleic acid modeling group: added with 2 mL of a complete medium containing 0.3 mmol/L of oleic acid per well; • MC low dose group: added with 2 mL of a complete medium containing 0.3 mmol/L of oleic acid and 2 μg/mL of Monascinol per well; • MC middle dose group: added with 2 mL of a complete medium containing 0.3 mmol/L of oleic acid and 4 μg/mL of Monascinol per well; • MC high dose group: added with 2 mL of a complete medium containing 0.3 mmol/L of oleic acid and 8 μg/mL of Monascinol per well; • After completing the administration, the cells of each group were cultured for 24 hours and then collected, a triglyceride kit (Beijing Applygen Technologies Inc.) was utilized to measure the content of triglyceride in HepG2 cells of each group. • c. results are shown in FIG. 3. Different letters indicate significant differences from the blank group, P<0.01.
Firstly, normal HepG2 cells were obtained, and HepG2 cells modeled with oleic acid were obtained according to the method in Example 1 (a concentration of oleic acid was 0.3 mmol/L).
(§2) On day 1, blank control group: normally cultured HepG2 cells without treatment; oleic acid modeling group (the concentration of oleic acid is 0.3 mmol/L): normally culture HepG2 cells modeled with oleic acid without treatment; MC group: HepG2 cells modeled with oleic acid were administered with 2 μg/mL of Monascinol, i.e., MC; MS group: HepG2 cells modeled with oleic acid were administered with 2 μg/mL of Monascin (MS).
After completing the administration, the cells of each group were cultured for 24 hours and then collected, a triglyceride kit (Beijing Applygen Technologies Inc.) was utilized to measure the content of triglyceride in HepG2 cells of each group, results are shown in FIG. 4.

[3] = target: T1, pancrelipase (Type II, derived from a porcine pancreas) (Sus scrofa, UniProt P00591); assay: Inhibitory activity on pancrelipase, 4-MUO substrate, fluorescence detection; format: biochemical; details: 4-MUO 0.1 mM, lipase 1 mg/mL, 30 mins at 25° C.
T1 construct: pancrelipase (Type II, derived from a porcine pancreas); from tissue; host or cells: porcine pancreas
T1 sequence (P00591 1-450): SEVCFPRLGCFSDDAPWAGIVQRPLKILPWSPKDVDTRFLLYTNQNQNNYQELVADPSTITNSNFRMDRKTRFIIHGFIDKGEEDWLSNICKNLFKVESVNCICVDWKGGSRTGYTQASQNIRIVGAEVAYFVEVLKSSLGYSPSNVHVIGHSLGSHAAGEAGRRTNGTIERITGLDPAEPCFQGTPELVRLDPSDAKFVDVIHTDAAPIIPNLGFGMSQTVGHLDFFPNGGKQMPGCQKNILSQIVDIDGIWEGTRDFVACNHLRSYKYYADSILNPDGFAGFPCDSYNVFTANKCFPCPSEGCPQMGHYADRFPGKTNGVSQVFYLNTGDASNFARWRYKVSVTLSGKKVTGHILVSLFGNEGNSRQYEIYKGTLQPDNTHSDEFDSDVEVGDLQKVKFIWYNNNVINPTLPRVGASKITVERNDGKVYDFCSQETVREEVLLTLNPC
Source text: In an experiment, 4-methylumbelliferyl oleate (4-MUO) was used as a substrate and a fluorescence detection method was used to evaluate the inhibitory activity of MC on pancrelipase (Type II, derived from a porcine pancreas).
The following groups were set (see also Table 1): • Blank group: no MC sample, only substrate, pancrelipase and Tris-HCL buffer; • Blank background group: no MC sample and pancrelipase, only substrate and Tris-HCL buffer; • Sample background group: no pancrelipase, only MC sample, substrate and Tris-HCL buffer; • Sample group: no Tris-HCL buffer, only MC sample, substrate and pancrelipase.
The inhibition rate was calculated according to the following formula: Inhibition rate (%)=[(A1−A2)−(A3−A4)]/(A1−A2)×100
A1: Fluorescence value in blank group; A2: Fluorescence value in blank background group; A3: Fluorescence value in sample group; and A4: Fluorescence value in sample background group.
Three parallel experiments were set for each group, in which the concentration of 4-MUO is 0.1 mM, and the MC samples were dissolved in DMSO (set 6 different concentrations: 5, 10, 20, 40, 80 and 160 μg/mL), the concentration of the lipase solution is 1 mg/mL. […] Therefore, the product 4-methylumbelliferone was determined under conditions of an excitation wavelength of 360±40 nm and an emission wavelength 460±40 nm. […]

[4] = test system: Golden Syrian hamsters fed with high-fat diet; assay: High-fat diet hamster experiment, 10 weeks gavage; format: in vivo, Golden Syrian hamster
Experimental: 24 male Golden Syrian hamsters (hamsters for short) used in the animal experiment were purchased from Beijing Vital River Laboratory Animal Technology Co., Ltd., weighing 110-120 g, and aged 8 weeks.
After acclimation for a period of time, they were randomly divided into 3 groups, each with 8 animals, and the grouping and experiments were carried out as follows:
Every day starting from Day 1: • Normal group (NOR): take normal-chow diet freely, and gavage the same amount of CMC-Na solution as the MC group; • High fat group (HFD): take high-fat chow diet freely, and gavage the same amount of CMC-Na solution as the MC group; • MC group: take high-fat chow diet freely, and gavage MC (dissolved in CMC-Na solution) at a dose of 20 mg/kg body weight.
The weight and food intake of the hamsters were measured every week. After 10 weeks, tissue samples or serum samples were collected and the following analysis was performed.
TC and TG in the liver were extracted based on the Folch method, the TC and TG detection kits produced by Nanjing Jiancheng Bioengineering Institute was used to detect the contents of TC and TG in liver tissue according to the method provided in the instructions.
Cobas8000 E602 full-automatic biochemical analyzer (Roche Diagnostics Co., Ltd., Germany) was used to measure TC and TG in serum of collected serum samples.

pancrelipase = target: T2, pancrelipase (Sus scrofa, UniProt P00591); assay: Type of inhibition on pancrelipase (order of addition, Lineweaver-Burk double reciprocal plot); format: biochemical, porcine; details: 160 μg/mL MC, lipase 1 mg/mL
T2 construct: pancrelipase (Type II, derived from a porcine pancreas); from tissue; host or cells: porcine pancreas
T2 sequence (P00591 1-450): T1 sequence (P00591 1-450)
Experimental: According to different forms and characteristics of binding between enzymes and inhibitors, the inhibitions can be divided into two types: reversible inhibition and irreversible inhibition. The irreversible inhibition usually binds to a group in an enzyme protein by a relatively strong covalent bond to inactivate an enzyme. […] In this part of experiment, MS and AK were used as controls, and the type of inhibition of MC was determined by changing the order of adding reactants, the intervention concentrations of the three pigment inhibitors were all 80 μg/mL. […]
The type of inhibition of MC on pancrelipase was determined based on the results of Lineweaver-burk double reciprocal plot method as follows.
A basic process of experiment of drawing the Lineweaver-Burk curve was: under the condition of a determined lipase concentration (1 mg/mL), the enzymatic reaction rates were measured with a series of different substrate concentrations. […]

[5] = test system: HepG2 cells modeled with oleic acid; assay: Oil red O staining of lipid drops in HepG2 cells modeled with oleic acid; format: cell-based; details: 2 μg/mL, inverted microscope ×400
Experimental: as §1, §2
Morphological observation was further carried out by oil red 0 staining, and the results are shown in FIGS. 5A-5C (inverted microscope×400), FIG. 5A is a diagram of lipid accumulation in HepG2 cells of an oleic acid modeling group; FIG. 5B is a diagram of lipid accumulation in HepG2 cells of an MS group; FIG. 5C is a diagram of lipid accumulation in HepG2 cells of an MC group. […] This is consistent with the test result of TG.

[6] = high-fat diet, gavage 20 mg/kg body weight daily
[7] = histology, 100× and 400× light microscope, 20 mg/kg

IC50 [3]: 219 µM
type of inhibition on pancrelipase (pancrelipase): anti-competitive inhibition
SMILES: C/C=C/C1=CC2=C(CO1)C[C@]1(C)OC(=O)[C@H](C(O)CCCCC)[C@H]1C2 (stereo partly drawn) [MC, Monascinol]
survival rate of cells ([1]; administration concentration 12 μg/mL): 66.7%
TG content in the cells decreased by (vs modeling group) ([2]; Example 2, 2 μg/mL): 38.9%
TG content in the cells decreased by (vs modeling group) ([2]; Example 2, 4 μg/mL): 34.6%
TG content in the cells decreased by (vs modeling group) ([2]; Example 2, 8 μg/mL): 51.3%
reduce the TG content in cells by [2]: 33.3%
Fat index (weight of perirenal and periepididymal fat pad/weight of body) [4, 6]: 3.56 ± 0.26^a
Liver tissue TC [4, 6]: 20.66 ± 0.58^c mg/g
Liver tissue TG [4, 6]: 9.62 ± 0.34^a mg/g
Liver weight [4, 6]: 4.21 ± 0.17^a g
Serum TC [4, 6]: 4.73 ± 0.21^b mmol/L
Serum TG [4, 6]: 2.97 ± 0.39^c mmol/L
Weight gain [4, 6]: 22.33 ± 4.12^c g
Weight of periepididymal fat pad [4, 6]: 2.99 ± 0.28^a g
Weight of perirenal fat pad [4, 6]: 1.62 ± 0.19^a g
adipose tissue sections: volume of periepididymal and perirenal adipose cells vs HFD group [4, 7]: significantly smaller volume than that in the HFD group
liver tissue sections: lipid accumulation in liver cells vs HFD group [4, 7]: significantly reduced
lipid drops in the cells, oil red O staining vs oleic acid modeling group [5]: reduce lipid drops in the cells and lighten color

SMILES: C/C=C/C1=CC2=C(CO1)C(=O)[C@]1(C)OC(=O)[C@H](C(=O)CCCCC)[C@H]1C2 [MS, Monascin]
survival rate of cells ([1]; administration concentration 10 μg/mL or more): 36.7%
reduce the TG content in cells by [2]: 26.3%
